Measurements as given in patent publication US12474342B2, “Methods for treating cancer and the use of biomarkers as a predictor of clinical sensitivity to therapies” (CELGENE CORPORATION, priority 2016, dated 2025).
Read-outs that look alike come from different tables or passages of the source.

What was measured:
[1] = test system: HNT-34 cells; assay: Apoptosis (caspase 3/7 activation), HNT-34; type: cell-based, human; conditions: for EC50: Homo sapiens, read-out: Compound D-induced Apoptosis EC50
[2] = target: IKZF1 (Homo sapiens, UniProt Q13422+Q96SW2); conditions: NB4 cell line
[3] = target: T1, GSPT1 (Homo sapiens, UniProt P15170+Q96SW2); assay: GSPT1 protein reduction, western analysis, Kasumi-1; type: cell-based; set-up: reduction in GSPT1 protein level was evaluated in human normal PBMCs; endogenous in cells; host or cells: primary PBMCs from normal donors (ID 4328, 4379) and AML patients (ID 11SH, 09P6)
Procedure: The time course of the reduction in GSPT1 by Compound D also was studied for up to 48 hours. The progressive degradation of GSPT1 over the course of 1 to 20 hours was evident in the presence of all concentrations of Compound D studied from 3 to 300 nM in HNT-34, HL-60, and ML-2 cells, with little GSPT1 remaining by 20 hours at 100 or 300 nM Compound D in HNT-34 or HL-60 cells (FIG. 34 and FIG. 35C). Time-dependent reduction in GSPT1 was also observed in KG-1 and OCI-AML2 cells at 3 to 1000 nM Compound D, with little GSPT1 remaining in KG-1 cells at 100 to 300 nM at 24 hours or in OCI-AML2 cells at 300 and 1000 nM at 24 hours (FIG. 35D). Loss of GSPT1 occurred more slowly in Kasumi-1, AML-193, and […] cells. […] A positive association (r^2=0.50; […]

[4] = target: T1, GSPT1; assay: GSPT1 degradation, western blot, MOLM-13; type: cell-based; set-up: endogenous in cells; conditions: 100 nM
From the text: Thus, Compound D-induced GSPT1 degradation is also CRBN-dependent.

T1 sequence (P15170 1-637 isoform P15170-3): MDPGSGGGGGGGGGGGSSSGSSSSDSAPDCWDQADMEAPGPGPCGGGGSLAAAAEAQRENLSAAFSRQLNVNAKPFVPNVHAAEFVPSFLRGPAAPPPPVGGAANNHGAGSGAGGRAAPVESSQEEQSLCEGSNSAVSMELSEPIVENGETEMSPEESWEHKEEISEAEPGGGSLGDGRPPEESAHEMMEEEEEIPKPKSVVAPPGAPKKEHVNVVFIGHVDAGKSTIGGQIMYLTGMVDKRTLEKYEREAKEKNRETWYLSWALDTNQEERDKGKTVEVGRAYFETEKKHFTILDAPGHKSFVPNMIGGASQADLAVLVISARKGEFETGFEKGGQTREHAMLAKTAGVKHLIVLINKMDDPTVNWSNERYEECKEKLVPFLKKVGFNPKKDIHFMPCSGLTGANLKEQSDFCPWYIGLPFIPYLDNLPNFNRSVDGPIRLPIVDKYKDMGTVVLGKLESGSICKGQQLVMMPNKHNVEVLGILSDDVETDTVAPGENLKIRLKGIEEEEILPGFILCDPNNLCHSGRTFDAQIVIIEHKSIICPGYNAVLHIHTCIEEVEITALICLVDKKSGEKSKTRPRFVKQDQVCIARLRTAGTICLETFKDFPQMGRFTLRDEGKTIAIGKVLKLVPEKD
T1 sequence (Q96SW2 whole entry): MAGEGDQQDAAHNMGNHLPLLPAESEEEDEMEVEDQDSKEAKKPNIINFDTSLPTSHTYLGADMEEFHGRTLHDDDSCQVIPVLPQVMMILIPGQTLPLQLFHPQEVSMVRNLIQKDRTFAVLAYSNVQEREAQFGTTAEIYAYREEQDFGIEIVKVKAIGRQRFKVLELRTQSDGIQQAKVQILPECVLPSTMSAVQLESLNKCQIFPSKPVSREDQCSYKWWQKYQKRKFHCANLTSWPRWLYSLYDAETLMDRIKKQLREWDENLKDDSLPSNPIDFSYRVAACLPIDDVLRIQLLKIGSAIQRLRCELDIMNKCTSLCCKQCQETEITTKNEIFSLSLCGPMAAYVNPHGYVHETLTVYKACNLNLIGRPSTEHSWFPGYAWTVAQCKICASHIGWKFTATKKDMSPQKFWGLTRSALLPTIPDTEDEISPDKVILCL
T1 sequence (Q16531 whole entry partner): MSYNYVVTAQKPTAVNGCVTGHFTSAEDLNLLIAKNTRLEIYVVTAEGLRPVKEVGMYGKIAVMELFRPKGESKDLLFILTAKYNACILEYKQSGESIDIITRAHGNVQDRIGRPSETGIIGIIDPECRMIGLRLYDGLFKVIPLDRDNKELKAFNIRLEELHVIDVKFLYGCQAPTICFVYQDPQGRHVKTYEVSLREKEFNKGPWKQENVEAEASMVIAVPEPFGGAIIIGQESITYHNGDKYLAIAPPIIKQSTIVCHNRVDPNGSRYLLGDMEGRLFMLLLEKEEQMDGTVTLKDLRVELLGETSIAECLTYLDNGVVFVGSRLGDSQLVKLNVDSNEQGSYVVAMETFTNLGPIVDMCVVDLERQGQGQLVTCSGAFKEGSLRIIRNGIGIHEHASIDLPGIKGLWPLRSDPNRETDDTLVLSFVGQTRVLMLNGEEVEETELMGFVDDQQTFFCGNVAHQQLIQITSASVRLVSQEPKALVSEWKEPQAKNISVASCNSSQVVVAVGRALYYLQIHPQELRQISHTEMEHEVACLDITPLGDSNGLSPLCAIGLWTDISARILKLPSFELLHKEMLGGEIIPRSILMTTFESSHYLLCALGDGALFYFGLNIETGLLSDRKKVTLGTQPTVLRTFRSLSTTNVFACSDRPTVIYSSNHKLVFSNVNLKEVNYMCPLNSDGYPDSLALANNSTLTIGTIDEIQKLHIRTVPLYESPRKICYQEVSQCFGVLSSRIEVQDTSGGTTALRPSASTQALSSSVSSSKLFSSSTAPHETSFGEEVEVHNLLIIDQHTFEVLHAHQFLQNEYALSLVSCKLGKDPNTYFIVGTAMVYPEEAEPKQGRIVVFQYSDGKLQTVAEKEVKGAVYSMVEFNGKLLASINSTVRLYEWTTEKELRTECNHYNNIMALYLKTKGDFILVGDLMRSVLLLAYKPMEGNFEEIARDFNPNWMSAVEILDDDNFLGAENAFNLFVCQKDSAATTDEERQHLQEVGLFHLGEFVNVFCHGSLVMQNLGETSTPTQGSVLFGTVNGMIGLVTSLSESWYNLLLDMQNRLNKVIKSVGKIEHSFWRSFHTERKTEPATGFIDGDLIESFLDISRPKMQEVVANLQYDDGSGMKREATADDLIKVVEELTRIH
Chain of IKZF1 (Q13422 whole entry): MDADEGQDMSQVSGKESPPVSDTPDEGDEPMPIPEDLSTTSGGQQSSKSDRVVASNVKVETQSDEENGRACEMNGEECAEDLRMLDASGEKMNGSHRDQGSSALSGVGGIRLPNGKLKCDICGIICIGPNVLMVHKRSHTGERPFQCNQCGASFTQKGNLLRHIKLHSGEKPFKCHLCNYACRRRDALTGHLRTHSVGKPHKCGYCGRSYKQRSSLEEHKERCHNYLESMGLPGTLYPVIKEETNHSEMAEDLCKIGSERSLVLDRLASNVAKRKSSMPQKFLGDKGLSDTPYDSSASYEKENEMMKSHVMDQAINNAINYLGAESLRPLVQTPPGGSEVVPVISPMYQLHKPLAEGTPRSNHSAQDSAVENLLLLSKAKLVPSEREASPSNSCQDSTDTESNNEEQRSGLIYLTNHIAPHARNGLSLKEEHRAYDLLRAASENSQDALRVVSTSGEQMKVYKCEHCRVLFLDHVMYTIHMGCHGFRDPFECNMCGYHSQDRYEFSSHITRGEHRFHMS
Chain of IKZF1 (Q96SW2 whole entry): as the sequence (Q96SW2 whole entry) above
Chain of IKZF1 (Q16531 whole entry partner): as the sequence (Q16531 whole entry partner) above

Compound: O=C1CCC(N2Cc3cc(CNC(=O)C(F)(F)c4ccc(Cl)cc4)ccc3C2=O)C(=O)N1 (centres unmarked) [Compound D, 2-(4-chlorophenyl)-N-((2-(2,6-dioxopiperidin-3-yl)-1-oxoisoindolin-5-yl)methyl)-2,2-difluoroacetamide]
- Average Percent Increase in Apoptosis at 123 nM Compound D, Apoptosis (12 hr) ([1]; HNT-34, 123 nM, 12 hr): 3%
- Average Percent Increase in Apoptosis at 123 nM Compound D, Apoptosis (24 hr) ([1]; HNT-34, 123 nM, 24 hr): 12%
- Average Percent Increase in Apoptosis at 123 nM Compound D, Apoptosis (48 hr) ([1]; HNT-34, 123 nM, 48 hr): 32%
- EC50 ([1]; HNT-34, 24 hr): 7 nM
- EC50 ([1]; HNT-34, 48 hr): 4 nM
- EC50 ([1]; HNT-34, 96 hr): 2 nM
- effect on IKZF1 level [2]: induced degradation
- Percent Reduction at 100 nM Compound D GSPTI (8 hr) ([3]; Kasumi-1, 100 nM, 8 hr): 64%
- GSPT1 reduction ([3]; Kasumi-1, 300 nM Compound D, 8 hours): 51%
- degradation of GSPT1 ([4]; CRBN -/- MOLM-13 cells): could not induce degradation
- degradation of GSPT1 ([4]; parental MOLM-13 cells): induced degradation
